# Reference: patent US8013159B2, “Quinoline derivatives as EP4 antagonists” (Merck Canada Inc., priority 2005, dated 2011)
# pIC50: −log10 of the molar value.
# Target: T1, EP4 receptor (Homo sapiens, UniProt P35408)
# T1 construct: expressed in transfected cells; membranes prepared by differential centrifugation
# Test: Prostanoid receptor binding assay (EP4), membranes of transfected HEK 293(ebna) cells
# Details: representative data, read-out: Potency in Binding Assay
# Procedure: Prostanoid receptor cDNAs corresponding to full length coding sequences are subcloned into the appropriate sites of mammalian expression vectors and transfected into HEK 293(ebna) cells. HEK 293(ebna) cells expressing the individual cDNAs are grown under selection and individual colonies are isolated after 2-3 weeks of growth using the cloning ring method and subsequently expanded into clonal cell lines.
# Transfected HEK 293(ebna) cells are maintained in culture, harvested and membranes are prepared by differential centrifugation, following lysis of the cells in the presence of protease inhibitors, for use in receptor binding assays. Prostanoid receptor binding assays (for DP1, DP2 (CRTH2), EP 1, EP2, EP3-11, EP4, FP, IP, and TP) are performed in 10 mM MES/KOH (pH 6.0) (EPs, FP and TP) or 10 mM HEPES/KOH (pH 7.4) (DPs and IP), containing 1 mM EDTA, 2.5-30 mM divalent cation and the appropriate radioligand. Synthetic compounds are added in dimethylsulfoxide which is kept constant at 1% (v/v) in all incubations. The reaction is initiated by addition of membrane protein. Non-specific binding is determined in the presence of 10 μM of the corresponding non-radioactive prostanoid. Incubations are conducted for 60-90 min at room temperature or 30° C. and terminated by rapid filtration. Specific binding is calculated by subtracting non specific binding from total binding. The residual specific binding at each ligand concentration is calculated and expressed as a function of ligand concentration in order to construct sigmoidal concentration-response curves. The binding affinity of the compounds is determined by calculating the equilibrium inhibition constant (Ki) from the equation Ki=InPt/1+[radioligand]/Kd where Kd is the equilibrium dissociation constant for the radioligand:receptor interaction and InPt is the inflection point of the dose-response curves.
# T1 sequence (P35408 whole entry): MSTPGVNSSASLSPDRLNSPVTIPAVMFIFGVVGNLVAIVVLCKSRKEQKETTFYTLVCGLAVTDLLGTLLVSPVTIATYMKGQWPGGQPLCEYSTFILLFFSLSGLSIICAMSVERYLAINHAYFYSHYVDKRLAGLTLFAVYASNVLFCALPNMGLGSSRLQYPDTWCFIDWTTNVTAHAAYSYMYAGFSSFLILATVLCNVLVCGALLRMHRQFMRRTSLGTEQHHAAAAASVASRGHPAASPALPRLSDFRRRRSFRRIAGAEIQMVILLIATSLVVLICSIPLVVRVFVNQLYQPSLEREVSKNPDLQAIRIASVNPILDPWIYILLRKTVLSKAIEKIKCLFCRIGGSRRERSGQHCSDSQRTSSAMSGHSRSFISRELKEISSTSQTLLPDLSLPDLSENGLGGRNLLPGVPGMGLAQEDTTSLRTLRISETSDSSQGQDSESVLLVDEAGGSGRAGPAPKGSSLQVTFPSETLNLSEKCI
row,pIC50,Structure (SMILES)
1,9.14,"CCOc1c2c(c(OCC)c3ncccc13)CN(c1ccc(CS(=O)(=O)NC(=O)Cc3cccc4ccccc34)cc1C)C2=O [Example 19, N-{[4-(5,9-diethoxy-6-oxo-6,8-dihydro-7H-pyrrolo[3,4-g]quinolin-7-yl)-3-methylbenzyl]sulfonyl}-2-(1-naphthyl)acetamide]"
2,9.21,"COc1cccc(OC)c1C1(C(=O)NS(=O)(=O)Cc2ccc(N3Cc4c(c(OCC(F)(F)F)c5cccnc5c4OCC(F)(F)F)C3=O)c(Cl)c2)CC1 [Example 63, N-({3-chloro-4-[6-oxo-5,9-bis(2,2,2-trifluoroethoxy)-6,8-dihydro-7H-pyrrolo[3,4-g]quinolin-7-yl]benzyl}sulfonyl)-1-(2,6-dimethoxyphenyl)cyclopropane-carboxamide]"

# Second part, the compound before the results:
row,Structure (SMILES),pIC50
1,"CCOc1c2c(c(OCC)c3ncccc13)CN(c1ccc(CS(=O)(=O)NC(=O)Cc3ccccc3C(F)(F)F)cc1C)C2=O [Example 7, N-{[4-(5,9-diethoxy-6-oxo-6,8-dihydro-7H-pyrrolo[3,4-g]quinolin-7-yl)-3-methylbenzyl]sulfonyl}-2-[2-(trifluoromethyl)phenyl]acetamide]",9.38
2,"COc1cccc(OC)c1C1(C(=O)NS(=O)(=O)Cc2ccc(N3Cc4c(c(OCC(F)(F)F)c5cccnc5c4OCC(F)(F)F)C3=O)c(C)c2)CC1 [Example 33, (1-(2,6-dimethoxyphenyl)-N-({3-methyl-4-[6-oxo-5,9-bis(2,2,2-trifluoroethoxy)-6,8-dihydro-7H-pyrrolo[3,4-g]quinolin-7-yl]benzyl}sulfonyl)cyclopropanecarboxamide)]",9.08
3,"CCOc1c2c(c(OCC)c3ncccc13)CN(c1ccc(CS(=O)(=O)NC(=O)C3(c4ccc(Cl)cc4Cl)CC3)cc1C)C2=O [Example 39, 1-(2,4-dichlorophenyl)-N-{[4-(5,9-diethoxy-6-oxo-6,8-dihydro-7H-pyrrolo[3,4-g]quinolin-7-yl)-3-methylbenzyl]sulfonyl}cyclopropane-carboxamide]",9.12
4,"CCOc1c2c(c(OCC)c3ncccc13)CN(c1ccc(CS(=O)(=O)NC(=O)Cc3ccccc3OC)cc1C)C2=O [Example 1, N-{[4-(5,9-diethoxy-6-oxo-6,8-dihydro-7H-pyrrolo[3,4-g]quinolin-7-yl)-3-methylbenzyl]sulfonyl}-2-(2-methoxyphenyl)acetamide]",9.33
